The target in data set [1] is T1, rat mGlu2 receptor (Rattus norvegicus, UniProt P31421).
T1 construct: expressed in transfected cells; membranes prepared
As to the kind of experiment: [3H]-LY354740 binding on mGlu2 transfected CHO cell membranes. To be noted: inhibition of 10 nM [3H]-LY354740 binding, membranes of CHO cells transfected with rat mGlu2, room temperature, 1 hour. From the text:
[^3H]-LY354740 Binding on mGlu2 Transfected CHO Cell Membranes. Transfection and Cell Culture
cDNA encoding the rat mGlu2 receptor protein in pBluescript II was subcloned into the eukaryotic expression vector pcDNA I-amp from Invitrogen Ltd (Paisley, UK). This vector construct (pcD1mGR2) was co-transfected with a psvNeo plasmid encoding the gene for neomycin resistance, into CHO cells by a modified calcium phosphate method described by Chen & Okayama (1988). The cells were maintained in Dulbecco's Modified Eagle medium with reduced L-glutamine (1 mM final concentration), 36 mg/L L-Proline and 10% dialysed foetal calf serum from Gibco-Invitrogen; the medium was supplemented with 500 microM α-methyl-4-carboxyphenylglycine (MCPG). Selection was made in the presence of G-418 (300 ug/ml final concentration). Clones were identified by reverse transcription of 5 μg total RNA, followed by PCR using mGlu2 receptor specific primers 5′-[…]-3′ and 5′-[…]-3′ in 60 mM Tris HCl (pH 10), 15 mM (NH4)2SO4, 2 mM MgCl2, 25 units/ml Taq Polymerase with 30 cycles annealing at 60° C. for 1 min., extention at 72° C. for 30 s, and 1 min. 95° C. denaturation.
Cells, cultured as above, were harvested and washed three times with cold PBS and frozen at −80° C. The pellet was resuspended in cold 20 mM HEPES-NaOH buffer containing 10 mM EDTA (pH 7.4), and homogenised with a polytron (Kinematica, A G, Littau, Switzerland) for 10 s at 10 000 rpm. After centrifugation for 30 min. at 4° C., the pellet was washed once with cold 20 mM HEPES-NaOH buffer containing 0.1 mM EDTA, (pH 7.4). After a second centrifugation for 30 min. at 4° C. the pellet was resuspended in cold 20 mM HEPES-NaOH buffer containing 0.1 mM EDTA, (pH 7.4). Protein content was measured using the Micro BCA method from Pierce-Perbio (Rockford, Ill., USA) using bovine serum albumin as standard.
After thawing, the membranes were resuspended in cold 50 mM Tris-HCl buffer containing 2 mM MgCl2 (pH 7.4) (binding buffer). The final concentration of the membranes in the assays was 25 μg protein/ml. Inhibition experiments were performed with membranes incubated with 10 nM [^3H]-LY354740 at room temperature, for 1 hour, in presence of various concentrations of the compound to be tested. Following the incubations, membranes were filtered onto Whatmann GF/B glass fiber filters or onto GF/B Unifilter plates and washed 5 times with cold binding buffer. Non specific binding was measured in the presence of 10 μM (2S,2′R,3′R)-2-(2′3′-Dicarboxycyclopropyl)glycine (DCG IV from Tocris, Ellisville, Mo. USA). After transfer of the filters into plastic vials containing 10 ml of Ultima-gold scintillation fluid from Perkin-Elmer (Boston, Mass., USA), the radioactivity was measured by liquid scintillation in a Tri-Carb 2500 TR counter (Packard, Zürich, Switzerland). For 96-Unifilter plates the radioactivity was measured after addition of Microscint 40 scintillation fluid (Perkin Elmer, Boston Mass.) using a TopCount NXT (Packard)
The inhibition curves were fitted with a four parameter logistic equation giving IC50 values, and Hill coefficients.

T1 sequence (P31421 19-872): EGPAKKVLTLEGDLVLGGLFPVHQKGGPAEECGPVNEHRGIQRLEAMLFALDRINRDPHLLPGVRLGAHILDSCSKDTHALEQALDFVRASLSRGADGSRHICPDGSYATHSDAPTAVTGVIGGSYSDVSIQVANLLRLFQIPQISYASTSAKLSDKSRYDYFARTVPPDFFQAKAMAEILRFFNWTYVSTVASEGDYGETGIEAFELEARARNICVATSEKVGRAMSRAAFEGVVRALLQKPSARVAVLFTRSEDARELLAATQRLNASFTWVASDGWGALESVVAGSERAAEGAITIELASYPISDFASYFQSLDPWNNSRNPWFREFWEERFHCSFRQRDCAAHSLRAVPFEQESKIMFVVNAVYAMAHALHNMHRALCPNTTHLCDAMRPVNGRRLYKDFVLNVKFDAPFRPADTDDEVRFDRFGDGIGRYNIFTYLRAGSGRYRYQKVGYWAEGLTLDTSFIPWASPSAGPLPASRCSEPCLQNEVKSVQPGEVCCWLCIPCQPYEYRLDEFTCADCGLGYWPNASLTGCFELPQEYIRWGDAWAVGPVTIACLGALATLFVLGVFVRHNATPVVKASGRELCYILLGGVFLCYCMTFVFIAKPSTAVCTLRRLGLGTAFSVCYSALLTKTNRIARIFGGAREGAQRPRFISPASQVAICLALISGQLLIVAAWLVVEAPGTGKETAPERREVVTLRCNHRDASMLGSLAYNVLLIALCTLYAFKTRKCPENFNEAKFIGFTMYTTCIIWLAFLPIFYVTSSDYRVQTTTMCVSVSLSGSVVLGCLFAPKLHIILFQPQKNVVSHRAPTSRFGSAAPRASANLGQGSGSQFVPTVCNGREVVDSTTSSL

In turn, `NS(=O)(=O)c1cccc(-c2nc(-c3nc(-c4ccc(Cl)cc4)cc(C(F)(F)F)n3)no2)c1` [Example 2, 3-{3-[4-(4-Chloro-phenyl)-6-trifluoromethyl-pyrimidin-2-yl]-[1,2,4]oxadiazol-5-yl}-benzenesulfonamide] registered a melting point of 273 °C. The compound further gave a Ki in data set [1] of 0.028 µM.

As for `FC(F)(F)c1ccc(-c2cc(C(F)(F)F)nc(-n3ccnc3)n2)cc1` [Example 3, 2-Imidazol-1-yl-4-trifluoromethyl-6-(4-trifluoromethyl-phenyl)-pyrimidine], the melting point came out at 162 °C. Also, the Ki in data set [1] came to 0.072 µM.

Take `FC(F)(F)c1ccc(-c2cc(C(F)(F)F)nc(-n3cnc(-c4cccnc4)c3)n2)cc1` [Example 5, 2-(4-Pyridin-3-yl-imidazol-1-yl)-4-trifluoromethyl-6-(4-trifluoromethyl-phenyl)-pyrimidine]: the melting point stood at 200.5 °C. The Ki in data set [1] is 0.047 µM.

As for `Nc1cc(-c2noc(-c3nc(-c4ccc(Cl)cc4)cc(C(F)(F)F)n3)n2)ccn1` [Example 8, 4-{5-[4-(4-Chloro-phenyl)-6-trifluoromethyl-pyrimidin-2-yl]-[1,2,4]oxadiazol-3-yl}-pyridin-2-ylamine], the melting point came to 223.5 °C. The compound further returned an inhibitory constant (Ki) in data set [1] of 0.1 µM.

For the compound `NS(=O)(=O)c1cccc(-c2nc(-c3nc(-c4ccc(C(F)(F)F)cc4)cc(C(F)(F)F)n3)no2)c1` [Example 10, 3-{3-[4-Trifluoromethyl-6-(4-trifluoromethyl-phenyl)-pyrimidin-2-yl]-[1,2,4]oxadiazol-5-yl}-benzenesulfonamide], the melting point worked out at 205 °C. Besides, in data set [1], the Ki is 0.025 µM.

`Nc1ccc(-c2noc(-c3nc(-c4ccc(C(F)(F)F)cc4)cc(C(F)(F)F)n3)n2)cn1` [Example 11, 5-{5-[4-Trifluoromethyl-6-(4-trifluoromethyl-phenyl)-pyrimidin-2-yl]-[1,2,4]oxadiazol-3-yl}-pyridin-2-ylamine] returned a melting point of 218.5 °C. Moreover, in data set [1], the Ki was found to be 0.0216 µM.

In turn, `Nc1ccc(-c2cccc(-c3nc(-c4ccc(C(F)(F)F)cc4)cc(C(F)(F)F)n3)c2)cn1` [Example 26, 5-{3-[4-Trifluoromethyl-6-(4-trifluoromethyl-phenyl)-pyrimidin-2-yl]-phenyl}-pyridin-2-ylamine] yielded a melting point of 205 °C. The affinity in data set [1], expressed as Ki, was 0.014 µM.

With `FC(F)(F)c1ccc(-c2cc(C(F)(F)F)nc(-c3cccc(-c4cccnc4)c3)n2)cc1` [Example 33, 2-(3-Pyridin-3-yl-phenyl)-4-trifluoromethyl-6-(4-trifluoromethyl-phenyl)-pyrimidine], the melting point was found to be 194 °C. For the same compound, the affinity in data set [1] corresponds to a Ki of 0.017 µM.

On to `FC(F)(F)c1cc(-c2ccc(Cl)cc2)nc(-c2cccc(-c3cccnc3)c2)n1` [Example 34, 4-(4-Chloro-phenyl)-2-(3-pyridin-3-yl-phenyl)-6-trifluoromethyl-pyrimidine], for which the melting point amounted to 162 °C. Also, the affinity in data set [1], expressed as Ki, was 0.047 µM.

Turning to `NS(=O)(=O)c1ccc(-c2noc(-c3nc(-c4ccc(C(F)(F)F)cc4)cc(C(F)F)n3)n2)cc1` [Example 35, 4-{5-[4-Difluoromethyl-6-(4-trifluoromethyl-phenyl)-pyrimidin-2-yl]-[1,2,4]oxadiazol-3-yl}-benzenesulfonamide], the melting point came to 307 °C. In data set [1], this compound came in with a Ki of 0.031 µM.

On to `FC(F)(F)c1ccc(-c2cc(C(F)(F)F)nc(-c3ccncc3)n2)cc1` [Example 39, 2-Pyridin-4-yl-4-trifluoromethyl-6-(4-trifluoromethyl-phenyl)-pyrimidine], for which the melting point was found to be 153.5 °C. The compound also yielded a Ki in data set [1] of 0.0395 µM.

`Cc1cc(-c2cccc(-c3nc(-c4ccc(C(F)(F)F)cc4)cc(C(F)(F)F)n3)c2)cc(C)n1` [Example 42, 2-[3-(2,6-Dimethyl-pyridin-4-yl)-phenyl]-4-trifluoromethyl-6-(4-trifluoromethyl-phenyl)-pyrimidine] came in with a melting point of 159 °C. In addition, in data set [1], affinity was put at a Ki of 0.14 µM.

For `Nc1ccc(-c2cn(-c3cc(-c4ccc(C(F)(F)F)cc4)cc(C4CC4)n3)cn2)cn1` [Example 54, 5-{1-[6-Cyclopropyl-4-(4-trifluoromethyl-phenyl)-pyridin-2-yl]-1H-imidazol-4-yl}-pyridin-2-ylamine], the melting point lay in the range of 233 to 235 °C. In addition, affinity in data set [1] was put at a Ki of 0.06 µM.

`Cc1cc(-c2ccc(C(F)(F)F)cc2)cc(-n2ccnc2)n1` [Example 55, 2-Imidazol-1-yl-6-methyl-4-(4-trifluoromethyl-phenyl)-pyridine] gave a melting point of 158 to 160 °C. Further, affinity in data set [1] was put at a Ki of 0.096 µM.

With `Nc1ccc(-c2cn(-c3cc(C(F)(F)F)cc(-c4ccc(Cl)cc4)n3)cn2)cn1` [Example 56, 5-{1-[6-(4-Chloro-phenyl)-4-trifluoromethyl-pyridin-2-yl]-1H-imidazol-4-yl}-pyridin-2-ylamine], the melting point was 196 °C (dec.). Moreover, the Ki in data set [1] came out at 0.009 µM.

With `FC(F)(F)c1ccc(-c2cc(C(F)(F)F)cc(-c3cccc(-c4cccnc4)c3)n2)cc1` [Example 59, 2-(3-Pyridin-3-yl-phenyl)-4-trifluoromethyl-6-(4-trifluoromethyl-phenyl)-pyridine], the melting point fell in the range of 164 to 166 °C. The compound further had a Ki in data set [1] of 0.0583 µM.

The compound `Nc1ccc(-c2cccc(-c3cc(C(F)(F)F)cc(-c4ccc(C(F)(F)F)cc4)n3)c2)cn1` [Example 60, 5-{3-[4-Trifluoromethyl-6-(4-trifluoromethyl-phenyl)-pyridin-2-yl]-phenyl}-pyridin-2-ylamine] had a melting point of 170 to 172 °C. The same compound registered a Ki in data set [1] of 0.032 µM.

The compound `Cc1cc(-c2ccc(C(F)(F)F)cc2)cc(-c2cccc(-c3cccnc3)c2)n1` [Example 61, 2-Methyl-6-(3-pyridin-3-yl-phenyl)-4-(4-trifluoromethyl-phenyl)-pyridine] came in with a melting point of 89 to 106 °C. Moreover, in data set [1], the inhibition constant Ki turned out to be 0.013 µM.

On to `Cc1cc(-c2ccc(C(F)(F)F)cc2)cc(-c2cccc(-c3ccc(N)nc3)c2)n1` [Example 62, 5-{3-[6-Methyl-4-(4-trifluoromethyl-phenyl)-pyridin-2-yl]-phenyl}-pyridin-2-ylamine], for which the melting point was 68 to 90 °C. The compound further registered a Ki in data set [1] of 0.003 µM.

`FC(F)(F)c1ccc(-c2cc(-c3cccc(-c4cccnc4)c3)nc(C3CC3)c2)cc1` [Example 63, 2-Cyclopropyl-6-(3-pyridin-3-yl-phenyl)-4-(4-trifluoromethyl-phenyl)-pyridine] gave a melting point of 100 to 104 °C. In data set [1], this compound registered a Ki of 0.029 µM.

`Nc1ccc(-c2cn(-c3cc(C(F)(F)F)cc(-c4ccc(C(F)(F)F)cc4)n3)cn2)cn1` [Example 65, 5-{1-[4-Trifluoromethyl-6-(4-trifluoromethyl-phenyl)-pyridin-2-yl]-1H-imidazol-4-yl}-pyridin-2-ylamine] registered a melting point of 245 to 247 °C. In data set [1], this compound yielded a Ki of 0.006 µM.

Compound `Cc1cc(-c2ccc(C(F)(F)F)cc2)cc(-c2cccc(-c3cnc(N)nc3)c2)n1` [Example 70, 5-{3-[6-Methyl-4-(4-trifluoromethyl-phenyl)-pyridin-2-yl]-phenyl}-pyrimidin-2-ylamine] gave a melting point of 215 to 217 °C. In data set [1], this compound returned a Ki of 0.044 µM.

As to `Cc1cc(-c2ccc(C(F)(F)F)cc2)cc(-c2cccc(-c3ccc(N)nc3)n2)n1` [Example 71, 6-Methyl-4-(4-trifluoromethyl-phenyl)-[2,2′;6′,3″]terpyridin-6″-ylamine], the melting point was 208 to 211 °C. The Ki in data set [1] was 0.001 µM.

Consider `Cc1cc(-c2ccc(C(F)(F)F)cc2)cc(-c2cccc(-c3cnc(N)nc3)n2)n1` [Example 72, 5-[6′-Methyl-4′-(4-trifluoromethyl-phenyl)-[2,2′]bipyridinyl-6-yl]-pyrimidin-2-ylamine], for which the melting point lay within 219 to 222 °C. In addition, affinity in data set [1] was put at a Ki of 0.056 µM.

These data come from US8183262B2, “Pyridine derivatives as mGluR2 antagonists” (Hoffmann-La Roche Inc., priority 2007, dated 2012).
